Assay results as given in PMC3071989 (Clinical cancer research : an official journal of the …, 2010).
Each block holds one compound with its values, some of them ahead of it.

Tests used:
Pgp [1] = target: T1, Pgp (Homo sapiens, UniProt P08183); test: Rhodamine 123 efflux from CD56+ mononuclear cells of patients; type: cell-based
ABCG2 = settings: compared with Pgp; cited from earlier work
MRP1 = settings: cited from earlier work
Pgp [2] = target: T1, Pgp; test: 99mTc-sestamibi scanning before and after tariquidar; type: in vivo; settings: after tariquidar 150 mg vs baseline
[3] = Docetaxel plasma pharmacokinetics with and without tariquidar; type: in vivo, human; settings: docetaxel 40 mg/m2, tariquidar 150 mg
[4] = patients who receive weekly docetaxel; cited from earlier work

T1 sequence (P08183 whole entry): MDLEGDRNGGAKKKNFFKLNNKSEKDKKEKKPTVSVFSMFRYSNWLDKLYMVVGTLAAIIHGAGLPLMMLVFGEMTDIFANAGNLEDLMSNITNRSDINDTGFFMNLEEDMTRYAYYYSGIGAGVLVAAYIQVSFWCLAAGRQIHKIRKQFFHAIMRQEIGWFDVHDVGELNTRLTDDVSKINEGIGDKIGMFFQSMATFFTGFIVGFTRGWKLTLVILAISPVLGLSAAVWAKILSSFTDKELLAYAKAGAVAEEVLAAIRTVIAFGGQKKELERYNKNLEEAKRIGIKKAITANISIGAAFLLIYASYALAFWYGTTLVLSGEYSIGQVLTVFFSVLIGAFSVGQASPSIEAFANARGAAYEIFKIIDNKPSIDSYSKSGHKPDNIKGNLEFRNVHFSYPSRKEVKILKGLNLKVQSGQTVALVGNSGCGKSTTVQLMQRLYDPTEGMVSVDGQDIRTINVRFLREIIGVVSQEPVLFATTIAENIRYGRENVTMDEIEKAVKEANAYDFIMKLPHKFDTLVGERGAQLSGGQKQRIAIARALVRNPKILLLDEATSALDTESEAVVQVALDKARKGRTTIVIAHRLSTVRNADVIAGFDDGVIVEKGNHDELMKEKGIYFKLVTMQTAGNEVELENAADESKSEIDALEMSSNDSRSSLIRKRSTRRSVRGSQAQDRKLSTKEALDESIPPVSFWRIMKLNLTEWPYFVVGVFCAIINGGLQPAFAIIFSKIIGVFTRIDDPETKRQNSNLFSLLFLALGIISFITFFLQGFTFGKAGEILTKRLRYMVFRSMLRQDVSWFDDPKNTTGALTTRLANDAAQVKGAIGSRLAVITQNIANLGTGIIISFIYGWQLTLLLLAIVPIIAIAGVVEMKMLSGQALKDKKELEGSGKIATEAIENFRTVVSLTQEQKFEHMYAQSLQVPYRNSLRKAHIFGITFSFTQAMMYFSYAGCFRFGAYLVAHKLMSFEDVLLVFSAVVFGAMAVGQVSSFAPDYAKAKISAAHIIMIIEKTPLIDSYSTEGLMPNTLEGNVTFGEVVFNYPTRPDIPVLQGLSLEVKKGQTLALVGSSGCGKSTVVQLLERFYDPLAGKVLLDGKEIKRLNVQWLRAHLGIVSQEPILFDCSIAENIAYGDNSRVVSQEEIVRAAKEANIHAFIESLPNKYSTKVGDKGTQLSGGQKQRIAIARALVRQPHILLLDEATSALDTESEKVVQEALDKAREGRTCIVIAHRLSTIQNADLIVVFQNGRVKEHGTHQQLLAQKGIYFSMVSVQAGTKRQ

inhibition of Pgp-mediated rhodamine transport (Pgp [1]; exogenously added valspodar 3 μg/ml): fully inhibits
Compound: C/C=C/C[C@@H](C)C(=O)[C@H]1C(=O)N[C@@H](C(C)C)C(=O)N(C)CC(=O)N(C)[C@@H](CC(C)C)C(=O)N[C@@H](C(C)C)C(=O)N(C)[C@@H](CC(C)C)C(=O)N[C@@H](C)C(=O)N[C@H](C)C(=O)N(C)[C@@H](CC(C)C)C(=O)N(C)[C@@H](CC(C)C)C(=O)N(C)[C@@H](C(C)C)C(=O)N1C [valspodar]

Compound: COc1cc2c(cc1OC)CN(CCc1ccc(NC(=O)c3cc(OC)c(OC)cc3NC(=O)c3cnc4ccccc4c3)cc1)CC2 [tariquidar]
inhibition of ABCG2-mediated resistance in vitro (ABCG2): higher concentrations are required to inhibit ABCG2 | inhibition of MRP1 (MRP1): does not inhibit | rhodamine efflux from CD56+ cells compared to Pre levels (Pgp [1]; 24 h after start of tariquidar 150 mg IV infusion, 41 patients): significantly decreased | inhibition of Pgp in circulating mononuclear cells (Pgp [1]; tariquidar 150 mg IV): complete inhibition | change in sestamibi AUC, liver (Pgp [2]; P<0.001): statistically significant change | change in sestamibi AUC, visualized tumor tissue (Pgp [2]; P<0.001): statistically significant change | change in sestamibi AUC0-3, cardiac tissue (Pgp [2]; two-tailed Student's t-test): No statistically significant increase | change in sestamibi AUC0-3, lung tissue (Pgp [2]; two-tailed Student's t-test): No statistically significant increase

docetaxel disposition, pairwise comparison with and without tariquidar ([3]; AUC0-24 and Cmax): no significant difference | geometric mean ratio of docetaxel AUC0-24 (with tariquidar/without tariquidar) ([3]; 31 patients, plasma): 1.07 (95% CI: 0.922-1.25) | geometric mean ratio of docetaxel Cmax (with tariquidar/without tariquidar) ([3]; 31 patients, plasma): 0.907 (95% CI: 0.697-1.18)
Compound: CC(=O)O[C@@]12CO[C@@H]1C[C@H](O)[C@@]1(C)C(=O)[C@H](O)C3=C(C)[C@@H](OC(=O)[C@H](O)[C@@H](NC(=O)OC(C)(C)C)c4ccccc4)C[C@@](O)([C@@H](OC(=O)c4ccccc4)[C@H]21)C3(C)C [docetaxel]
epiphora secondary to canalicular stenosis, incidence [4]: 33-50%
